Patent publication US7432245B2, “Pharmaceutical formulation comprising a peptide angiogenesis inhibitor” (Abbott Laboratories Inc., priority 2002, dated 2008)
Where a name gives a salt, the structure may show the parent alone. Where a SMILES comes first, the peptide text is derived from it. [ ]: non-standard residue; d: D form. Nva = CCC[C@H](N)C(=O)O; Sar = CNCC(=O)O

Assay: In vitro release from PLG gels into buffer at 37° C.
Assay type: physicochemical
Details: solution of 5% in 2:1 NMP/TA without PLG, 5 mM PBS buffer (pH 7.4), FIG. 1
Method: The samples of gel formulations of the acetate salt of formula (Ia) in PLG and NMP/TA were immersed in 5 mM PBS buffer (pH 7.4) and incubated at 37° C. At a predetermined time, 1 mL of the dissolution medium was withdrawn from the dissolution container, filtered, and assayed for the concentration of the acetate salt of formula (Ia) by HPLC. Fresh PBS buffer (1 mL) was added to replace the withdrawn medium.
The in vitro drug release of the acetate salt of formula (Ib) from the PLG gel formulations (IV) and (V) (from Example 6) was determined by the method described in Example 4.
The in vitro drug release profiles of PLG (24 KD) gel formulations were obtained by the methods described in Example 4.
Formulations of valproate (formulation VI), octanoate (formulation VII), and pivalate (formulation VIII) salts of the compound of formula (Ib) were prepared by substituting the appropriate salts (prepared as described in Example 1b) for the acetate salt in Example 6B. […] In addition, a formulation (formulation IX) that contained 6.0% pivalate salt of formula (Ib), 32.9% PLG (13 KD, 50:50 polymer ratio), 40.4% NMP and 20.7% TA was also prepared. The in vitro drug release profiles of formulations VI, VII, VIII, and IX were obtained by the methods described in Example 4 substituting 50 mM phosphate buffer (pH 7.4) for 5 mM PBS buffer. […]

CCC[C@H](NC(=O)[C@@H](NC(=O)[C@H](NC(=O)[C@@H](NC(=O)CNC(=O)CN(C)C(C)=O)C(C)C)[C@H](C)CC)[C@@H](C)O)C(=O)N[C@H](C(=O)N[C@@H](CCCNC(=N)N)C(=O)N1CCC[C@H]1C(=O)NCC)[C@@H](C)CC [acetate salt of formula (Ia), N-Ac-Sar-Gly-Val-DIle-Thr-Nva-Ile-Arg-ProNHCH2CH3] (Ac-[Sar]GV[dI]T[Nva]IRP-NHEt)
in vitro release profile: no sustained release
